What follows are molecules tested against T1, Human CB1 (Homo sapiens (Human), UniProt P21554) (assay: Calcium mobilization assay (antagonist mode vs CP55,940)). Settings: CHO-RD-HGA16 cells stably expressing human CB1; against EC50 concentration of CP55,940; mean ± SEM, at least three experiments.
Format: cell-based
Method: Calcium Mobilization Assay: CHO-RD-HGA16 cells (Molecular Devices, San Jose, California, United States of America) stably expressing the human CB1 receptor were plated into 96-well black-walled assay plates at 25,000 cells/well in 100 μL of Ham's F12 (supplemented with 10% fetal bovine serum, 100 units of penicillin/streptomycin, and 100 μg/mL Normocin) and incubated overnight at 37° C., 5% CO2. Calcium 5 dye (Molecular Devices, San Jose, California, United States of America) was reconstituted according to the manufacturer's instructions. The reconstituted dye was diluted 1:40 in prewarmed (37° C.) assay buffer (lx HBSS, 20 mM HEPES, 2.5 mM probenecid, pH 7.4 at 37° C.). Growth medium was removed, and the cells were gently washed with 100 μL of prewarmed (37° C.) assay buffer. […] After the pretreatment incubation period, the plate was read with a FLIPR Tetra (Molecular Devices, San Jose, California, United States of America). […] Relative fluorescence units (RFU) were plotted against the log of compound concentrations. […] Test compound RFUs were compared to the CP55,940 Emax RFUs to generate % Emax values. For the CB2 agonist and antagonist assays, the same procedures were followed except that stable human CB2—CHO-RD-HGA16 cells were used.
(§1) Data Analysis: For calcium mobilization experiments, data were fit to a three-parameter logistic curve to generate IC50 values (GraphPad Prism 6.0, Graphpad Software, San Diego, California, United States of America). For [^35S]GTPγS experiments, data were normalized to maximal CP55,940 (100 nM) stimulation in the absence of test compound (i.e., vehicle=100%).

T1 sequence (P21554 whole entry): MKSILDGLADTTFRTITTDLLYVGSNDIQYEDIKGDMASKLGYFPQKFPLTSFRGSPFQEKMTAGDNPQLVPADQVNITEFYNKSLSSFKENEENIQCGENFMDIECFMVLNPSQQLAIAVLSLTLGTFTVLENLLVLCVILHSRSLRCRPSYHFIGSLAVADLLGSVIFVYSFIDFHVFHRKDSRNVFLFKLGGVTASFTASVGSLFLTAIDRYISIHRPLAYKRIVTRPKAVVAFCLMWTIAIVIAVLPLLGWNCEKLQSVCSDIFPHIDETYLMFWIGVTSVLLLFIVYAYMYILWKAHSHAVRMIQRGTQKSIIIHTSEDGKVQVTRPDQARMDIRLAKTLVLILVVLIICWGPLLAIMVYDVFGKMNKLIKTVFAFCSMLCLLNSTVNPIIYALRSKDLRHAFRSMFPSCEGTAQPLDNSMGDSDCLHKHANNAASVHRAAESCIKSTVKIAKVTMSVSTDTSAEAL

IC50 [nM] | SMILES
210 ± 39 | O=c1c(NCCc2ccccc2)c(Nc2ccc(Cl)cc2)c1=O [Compound 11, 3-[(4-Chlorophenyl)amino]-4-[(2-phenylethyl)amino]cyclobut-3-ene-1,2-dione]
1040 ± 359 | O=c1c(NCCCc2ccccc2)c(Nc2ccc(Cl)cc2)c1=O [Compound 12, 3-[(4-Chlorophenyl)amino]-4-[(3-phenylpropyl)amino]cyclobut-3-ene-1,2-dione]
222 ± 35 | O=c1c(NCCc2ccc(Cl)cc2)c(Nc2ccc(Cl)cc2)c1=O [Compound 13, 3-[(4-Chlorophenyl)amino]-4-{[2-(4-chlorophenyl)ethyl]amino}cyclobut-3-ene-1,2-dione]
205 ± 41 | Cc1cccc(CCNc2c(Nc3ccc(Cl)cc3)c(=O)c2=O)c1 [Compound 14, 3-[(4-Chlorophenyl)amino]-4-{[2-(3-methylphenyl)ethyl]amino}cyclobut-3-ene-1,2-dione]
164 ± 30 | Cc1ccc(CCNc2c(Nc3ccc(Cl)cc3)c(=O)c2=O)cc1 [Compound 15, 3-[(4-Chlorophenyl)amino]-4-{[2-(4-methylphenyl)ethyl]amino}cyclobut-3-ene-1,2-dione]
1110 ± 88 | COc1ccccc1CCNc1c(Nc2ccc(Cl)cc2)c(=O)c1=O [Compound 16, 3-[(4-Chlorophenyl)amino]-4-{[2-(2-methoxyphenyl)ethyl]amino}cyclobut-3-ene-1,2-dione]
350 ± 39 | COc1cccc(CCNc2c(Nc3ccc(Cl)cc3)c(=O)c2=O)c1 [Compound 17, 3-[(4-Chlorophenyl)amino]-4-{[2-(3-methoxyphenyl)ethyl]amino}cyclobut-3-ene-1,2-dione]
734 ± 310 | COc1ccc(CCNc2c(Nc3ccc(Cl)cc3)c(=O)c2=O)cc1 [Compound 18, 3-[(4-Chlorophenyl)amino]-4-{[2-(4-methoxyphenyl)ethyl]amino}cyclobut-3-ene-1,2-dione]
933 | O=c1c(NCCc2ccccc2C(F)(F)F)c(Nc2ccc(Cl)cc2)c1=O [Compound 19, 3-[(4-Chlorophenyl)amino]-4-({2-[2-(trifluoromethyl)phenyl]ethyl}amino)cyclobut-3-ene-1,2-dione]
360 ± 65 | O=c1c(NCCc2cccc(C(F)(F)F)c2)c(Nc2ccc(Cl)cc2)c1=O [Compound 20, 3-[(4-Chlorophenyl)amino]-4-({2-[3-(trifluoromethyl)phenyl]ethyl}amino)cyclobut-3-ene-1,2-dione]
275 ± 13 | O=c1c(NCCc2ccc(C(F)(F)F)cc2)c(Nc2ccc(Cl)cc2)c1=O [Compound 21, 3-[(4-Chlorophenyl)amino]-4-({2-[4-(trifluoromethyl)phenyl]ethyl}amino)cyclobut-3-ene-1,2-dione]
337 ± 21 | O=c1c(NCCc2ccc(F)cc2)c(Nc2ccc(Cl)cc2)c1=O [Compound 22, 3-[(4-Chlorophenyl)amino]-4-{[2-(4-fluorophenyl)ethyl]amino}cyclobut-3-ene-1,2-dione]
1290 ± 201 | O=c1c(NCCc2ccccc2Cl)c(Nc2ccc(Cl)cc2)c1=O [Compound 23, 3-[(4-Chlorophenyl)amino]-4-{[2-(2-chlorophenyl)ethyl]amino}cyclobut-3-ene-1,2-dione]
274 ± 33 | O=c1c(NCCc2ccccc2F)c(Nc2ccc(Cl)cc2)c1=O [Compound 24, 3-[(4-Chlorophenyl)amino]-4-{[2-(2-fluorophenyl)ethyl]amino}cyclobut-3-ene-1,2-dione]
286 ± 28 | O=c1c(NCCc2cccc(F)c2)c(Nc2ccc(Cl)cc2)c1=O [Compound 25, 3-[(4-Chlorophenyl)amino]-4-{[2-(3-fluorophenyl)ethyl]amino}cyclobut-3-ene-1,2-dione]
2100 ± 272 | CN(C)c1cccc(CCNc2c(Nc3ccc(Cl)cc3)c(=O)c2=O)c1 [Compound 26, 3-[(4-Chlorophenyl)amino]-4-({2-[3-(dimethylamino)phenyl]ethyl}amino)cyclobut-3-ene-1,2-dione]
535 ± 135 | CN(C)c1ccc(CCNc2c(Nc3ccc(Cl)cc3)c(=O)c2=O)cc1 [Compound 27, 3-[(4-Chlorophenyl)amino]-4-({2-[4-(dimethylamino)phenyl]ethyl}amino)cyclobut-3-ene-1,2-dione]

IC50 [nM] | SMILES
460 ± 66 | N#Cc1ccc(Nc2c(NCCc3cccc(Cl)c3)c(=O)c2=O)cc1 [Compound 28, 4-[(2-{[2-(3-Chlorophenyl)ethyl]amino}-3,4-dioxocyclobut-1-en-1-yl)amino]benzonitrile]
408 ± 94 | O=c1c(Nc2ccc(Cl)cc2)c(Nc2cccc(-c3ccccc3)c2)c1=O [Compound 29, 3-(Biphenyl-3-ylamino)-4-[(4-chlorophenyl)amino]cyclobut-3-ene-1,2-dione]
154 ± 14 | O=c1c(Nc2ccc(Cl)cc2)c(Nc2cccc(-c3cscn3)c2)c1=O [Compound 31, 3-[(4-Chlorophenyl)amino]-4-{[3-(1,3-thiazol-4-yl)phenyl]amino}cyclobut-3-ene-1,2-dione]
463 ± 56 | O=c1c(Nc2ccc(Cl)cc2)c(Nc2cccc(-c3ccsc3)c2)c1=O [Compound 32, 3-[(4-Chlorophenyl)amino]-4-{[3-(thiophen-3-yl)phenyl]amino}cyclobut-3-ene-1,2-dione]
1480 ± 297 | O=c1c(Nc2ccc(Cl)cc2)c(Nc2ccc(-c3ccccc3)cc2)c1=O [Compound 34, 3-(Biphenyl-4-ylamino)-4-[(4-chlorophenyl)amino]cyclobut-3-ene-1,2-dione]
958 ± 60 | O=c1c(NCCc2ccccn2)c(Nc2ccc(Cl)cc2)c1=O [Compound 36, 3-[(4-Chlorophenyl)amino]-4-{[2-(pyridin-2-yl)ethyl]amino}cyclobut-3-ene-1,2-dione]
> 10000 | O=c1c(NCCc2ccncc2)c(Nc2ccc(Cl)cc2)c1=O [Compound 37, 3-[(4-Chlorophenyl)amino]-4-{[2-(pyridin-4-yl)ethyl]amino}cyclobut-3-ene-1,2-dione]
333 ± 7 | O=c1c(NCCc2ccc(Br)cc2)c(Nc2ccc(Cl)cc2)c1=O [Compound 38, 3-[(4-Chlorophenyl)amino]-4-{[2-(4-bromophenyl)ethyl]amino}cyclobut-3-ene-1,2-dione]
399 ± 22 | O=c1c(NCCc2cccs2)c(Nc2ccc(Cl)cc2)c1=O [Compound 39, 3-[(4-Chlorophenyl)amino]-4-{[2-(thiophen-2-yl)ethyl]amino}cyclobut-3-ene-1,2-dione]
877 ± 31 | O=c1c(NCCc2ccc(Cl)c(Cl)c2)c(Nc2ccc(Cl)cc2)c1=O [Compound 41, 3-[(4-Chlorophenyl)amino]-4-{[2-(3,4-dichlorophenyl)ethyl]amino}cyclobut-3-ene-1,2-dione]
408 ± 66 | Cc1ccc(CCNc2c(Nc3ccc(Cl)cc3)c(=O)c2=O)cc1C [Compound 42, 3-[(4-Chlorophenyl)amino]-4-{[2-(3,4-dimethylphenyl)ethyl]amino}cyclobut-3-ene-1,2-dione]
2070 ± 204 | O=c1c(NCCc2cccc(O)c2)c(Nc2ccc(Cl)cc2)c1=O [Compound 43, 3-[(4-Chlorophenyl)amino]-4-{[2-(3-hydroxyphenyl)ethyl]amino}cyclobut-3-ene-1,2-dione]
> 10000 | O=c1c(NCCN2CCCCC2)c(Nc2ccc(Cl)cc2)c1=O [Compound 45, 3-[(4-Chlorophenyl)amino]-4-{[2-(piperidin-1-yl)ethyl]amino}cyclobut-3-ene-1,2-dione]
639 ± 247 | CCN(CC)c1ccc(CCNc2c(Nc3ccc(Cl)cc3)c(=O)c2=O)cc1 [Compound 48, 3-[(4-Chlorophenyl)amino]-4-({2-[4-(diethylamino)phenyl]ethyl}amino)cyclobut-3-ene-1,2-dione]
> 10000 | O=c1c(NCCc2ccc(N3CCCCC3)cc2)c(Nc2ccc(Cl)cc2)c1=O [Compound 49, 3-[(4-Chlorophenyl)amino]-4-{[2-(4-piperidin-1-ylphenyl)ethyl]amino}cyclobut-3-ene-1,2-dione]
> 10000 | O=c1c(NCCc2ccc(N3CCCC3)cc2)c(Nc2ccc(Cl)cc2)c1=O [Compound 50, 3-[(4-Chlorophenyl)amino]-4-{[2-(4-pyrrolidin-1-ylphenyl)ethyl]amino}cyclobut-3-ene-1,2-dione]
> 10000 | O=c1c(NCCc2ccc(N3CCC3)cc2)c(Nc2ccc(Cl)cc2)c1=O [Compound 51, 3-{[2-(4-Azetidin-1-ylphenyl)ethyl]amino}-4-[(4-chlorophenyl)amino]cyclobut-3-ene-1,2-dione]

SMILES | IC50 [nM]
Cc1ccccc1CCNc1c(Nc2ccc(Cl)cc2)c(=O)c1=O [Compound 35, 3-[(4-Chlorophenyl)amino]-4-{[2-(2-methylphenyl)ethyl]amino}cyclobut-3-ene-1,2-dione] | 353 ± 37
O=c1c(NCCc2ccc(Cl)cc2Cl)c(Nc2ccc(Cl)cc2)c1=O [Compound 44, 3-[(4-Chlorophenyl)amino]-4-{[2-(2,4-dichlorophenyl)ethyl]amino}cyclobut-3-ene-1,2-dione] | 1140 ± 183

The molecules below were run against T1, Human CB1 (assay: Human CB1 HEK293 membrane [35S]GTPγS binding assay). Settings: HEK293 membranes expressing human CB1; in presence of CP55,940; mean ± SEM; read-out: Human CB1 HEK293 membrane [35S]GTPγS binding assay pIC50 ± SEM (converted).
Format: biochemical
Method: Non-specific binding was determined by adding 30 μM unlabeled GTPγS.
as §1

IC50 [nM] | SMILES
776 | O=c1c(NCCc2ccccc2)c(Nc2ccc(Cl)cc2)c1=O [Compound 11, 3-[(4-Chlorophenyl)amino]-4-[(2-phenylethyl)amino]cyclobut-3-ene-1,2-dione]
398 | N#Cc1ccc(Nc2c(NCCc3cccc(Cl)c3)c(=O)c2=O)cc1 [Compound 28, 4-[(2-{[2-(3-Chlorophenyl)ethyl]amino}-3,4-dioxocyclobut-1-en-1-yl)amino]benzonitrile]
